Results from US20110223675A1, “DRUG RELEASE MEANS FROM LIPOSOMES AND METHOD FOR EVALUATING RELEASABILITY” (TERUMO KABUSHIKI KAISHA, priority 2008, published 2011).
Counter-ions that a name gives are not always drawn.

Test: drug releasability test of liposomes in a shift reagent solution
Type: physicochemical
Procedure: After 1:10 dilution of the sample with a stop solution, the drug, not contained in the liposomes, was separated by ultracentrifugation to provide a sample solution. Separately, 100 μl of a VCR aqueous solution having a different concentration was taken out, to which 900 μl of water was added. Moreover, this solution was diluted with water at 1:10 to provide a reference solution for calibration curve. The sample solution and reference solution were subjected to quantitative determination under the HPLC conditions indicated before with respect to the VCR determination except that an injected amount was at 50 μl only in this determination method.
After dilution of the sample with a stop solution at 1:10, the drug, not contained in the liposomes, was separated by ultracentrifugation. 1 ml of a 0.1 mol/l dihydrogen sodium phosphate solution having a pH of 3.0 was added to and mixed with 1 ml of a supernatant of the sample obtained after the ultracentrifugation to provide a sample solution. Separately, 1 ml of a 0.1 mol/l dihydrogen sodium phosphate solution having a pH of 3.0 was added to and mixed with 1 ml of/a DXR solution having a different concentration to prepare a reference solution for calibration curve. The sample solution and reference solution were subjected to measurement under HPLC conditions indicated with respect to the DXR determination.
Release rate (%)=amount of released drug/total drug amount×100
Ammonium acetate was dissolved so as to make ammonium ion concentrations of 5, 20, 25, 50 and 100 mM and the pH of the solutions was adjusted to 7.0 by use of a 0.1 M sodium hydroxide test solution. Moreover, sodium chloride was added to the solutions so that an osmotic pressure thereof was made at 300 mOsm, thereby providing shift reagent solutions.
The liposomes shown in Preparatory Example 1 were diluted with the shift reagent solution at 1:10 and heated to 37° C. 2.5, 5, 10, 15 and 30 minutes after commencement of the heating, samples were taken out. It is to be noted that the samples were stored under ice cooling before use. The quantitative determination of released VCR was made according to the method described hereinbefore.
Ammonium acetate was dissolved so as to make an ammonium ion concentration of 50 mM, followed by controlling the pH of the solution at 4.0, 5.0, 6.0, 7.0 and 8.0 by use of a 1 M sodium hydroxide test solution. […]
The liposomes shown in Preparatory Example 1 were diluted with the shift reagent solution at 1:10 and heated at 37° C. […] The released VCR was quantitatively determined by the method set out hereinbefore. […]
The liposomes shown in Preparatory Example 1 were diluted with the shift reagent solution at 1:10 and heated at 37° C. […] The quantitative determination of the released VCR was made according to the method set out hereinbefore. […]

SMILES	DXR releasability (250 mM ethylenediamine/phosphate buffer solution pH 7.4, 37° C., 0-4 hours)	VCR releasability versus pH of shift reagent solution (LIP1, 50 mM ammonium acetate, pH 4.0-8.0, 300 mOsm, 37° C.)	VCR release versus osmotic pressure of shift reagent solution (LIP1, 50 mM ammonium acetate, pH 7.0, 100-750 mOsm, 37° C.)	VCR release with amino compounds as shift reagent (LIP2, 50 mM 2-aminoethanol, ethylenediamine or diethylamine, pH 7.4, 37° C.)
COc1cccc2c1C(=O)c1c(O)c3c(c(O)c1C2=O)C[C@@](O)(C(=O)CO)C[C@@H]3O[C@H]1C[C@H](N)[C@H](O)[C@H](C)O1 [DXR, Doxorubicin hydrochloride]	could be released	–	–	–
CC[C@]1(O)C[C@H]2CN(CCc3c([nH]c4ccccc34)[C@@](C(=O)OC)(c3cc4c(cc3OC)N(C=O)[C@H]3[C@@](O)(C(=O)OC)[C@H](OC(C)=O)[C@]5(CC)C=CCN6CC[C@]43[C@@H]65)C2)C1 [VCR, Vincristine sulfate]	–	promoted with increasing pH	a smaller osmotic pressure of the shift reagent solution leads to more promoted release	can be released
